This note sets out measurements from ChEMBL document CHEMBL3390842 (Medchemcomm, 2012).

pEC50: −log10 of the molar value. The source made the active and inactive calls. The rule behind the calls is not given here.

Usually pEC50 stands for −log10 of the EC50, conventionally taken in molar units. Higher therefore signals a small EC50.

The target of assay [1] is T1, G-protein coupled receptor 35 (Homo sapiens, UniProt Q9HC97). The experiment in a line: Agonist activity at GPR35 in human HT-29 cells assessed as induction of whole cell dynamic mass redistribution at 128 uM after 50 mins by resonant waveguide grating biosensor analysis in presence of GPR35 antagonist ML-145. The format is cell-based.
T1 sequence (Q9HC97 whole entry): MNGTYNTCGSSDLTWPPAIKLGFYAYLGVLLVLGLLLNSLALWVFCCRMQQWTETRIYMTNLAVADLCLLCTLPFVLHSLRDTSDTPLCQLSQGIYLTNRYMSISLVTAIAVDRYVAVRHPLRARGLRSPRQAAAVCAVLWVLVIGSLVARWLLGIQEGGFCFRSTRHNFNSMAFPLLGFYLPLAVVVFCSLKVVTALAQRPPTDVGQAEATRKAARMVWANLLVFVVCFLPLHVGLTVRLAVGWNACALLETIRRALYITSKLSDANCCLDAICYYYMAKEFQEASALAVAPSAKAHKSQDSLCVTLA
Assay [2] deals with T1, G-protein coupled receptor 35. In kind it is cell-based, HT-29.
Assay [3] has the same target. The format is cell-based, U2OS.
Assay [4] shares this target. The experiment in a line: Agonist activity at GPR35 in human HT-29 cells assessed as induction of whole cell dynamic mass redistribution at 32 uM after 50 mins by resonant waveguide grating biosensor analysis in presence of GPR35 antagonist ML-145. The format is cell-based.

On to `O=[N+]([O-])c1ccc(O)c([N+](=O)[O-])c1`, for which the outcome in assay [1] was Active.
Take `CCN(CC)C(=O)/C(C#N)=C/c1cc(O)c(O)c([N+](=O)[O-])c1` [ENTACAPONE]: the pEC50 is 5.25 in assay [2] and 4.18 in assay [3].
With `O=[N+]([O-])c1cc(O)c(O)c([N+](=O)[O-])c1`, the result in assay [4] was inactive.
As to `CC(=O)C(=Cc1cc(O)c(O)c([N+](=O)[O-])c1)C(C)=O` [NITECAPONE], the pEC50 in assay [2] is 6.09; in assay [3], 4.77.
As for `O=C(c1cc(O)c(O)c([N+](=O)[O-])c1)c1ccccc1F`, the values for the pEC50 in assay [2] and in assay [3] were 5.06 and 4.26, respectively. The result in assay [4] was Active.
